Conditions: drug substance

**Q.** With `C[C@]12CC[C@H]3[C@@H](CCC4=CC(=O)CC[C@@]43C)[C@@H]1CC[C@@H]2O` [Testosterone, 17β-Hydroxyandrost-4-en-3-one] as the compound, how does the Stability in air read?
**A.** The Stability in air was “powder. It is odourless, and stable in air”.
